Values belong to the compound of their own block, whether it stands above or below them.
Columns and labels:
[1] = molecular target: T1, Toll-like receptor 8 (Homo sapiens, UniProt Q9NR97); assay: Agonist activity at human TLR8 transfected in HEK293 cells assessed as induction of SEAP production incubated overnight; type: cell-based
T1 sequence (Q9NR97 whole entry): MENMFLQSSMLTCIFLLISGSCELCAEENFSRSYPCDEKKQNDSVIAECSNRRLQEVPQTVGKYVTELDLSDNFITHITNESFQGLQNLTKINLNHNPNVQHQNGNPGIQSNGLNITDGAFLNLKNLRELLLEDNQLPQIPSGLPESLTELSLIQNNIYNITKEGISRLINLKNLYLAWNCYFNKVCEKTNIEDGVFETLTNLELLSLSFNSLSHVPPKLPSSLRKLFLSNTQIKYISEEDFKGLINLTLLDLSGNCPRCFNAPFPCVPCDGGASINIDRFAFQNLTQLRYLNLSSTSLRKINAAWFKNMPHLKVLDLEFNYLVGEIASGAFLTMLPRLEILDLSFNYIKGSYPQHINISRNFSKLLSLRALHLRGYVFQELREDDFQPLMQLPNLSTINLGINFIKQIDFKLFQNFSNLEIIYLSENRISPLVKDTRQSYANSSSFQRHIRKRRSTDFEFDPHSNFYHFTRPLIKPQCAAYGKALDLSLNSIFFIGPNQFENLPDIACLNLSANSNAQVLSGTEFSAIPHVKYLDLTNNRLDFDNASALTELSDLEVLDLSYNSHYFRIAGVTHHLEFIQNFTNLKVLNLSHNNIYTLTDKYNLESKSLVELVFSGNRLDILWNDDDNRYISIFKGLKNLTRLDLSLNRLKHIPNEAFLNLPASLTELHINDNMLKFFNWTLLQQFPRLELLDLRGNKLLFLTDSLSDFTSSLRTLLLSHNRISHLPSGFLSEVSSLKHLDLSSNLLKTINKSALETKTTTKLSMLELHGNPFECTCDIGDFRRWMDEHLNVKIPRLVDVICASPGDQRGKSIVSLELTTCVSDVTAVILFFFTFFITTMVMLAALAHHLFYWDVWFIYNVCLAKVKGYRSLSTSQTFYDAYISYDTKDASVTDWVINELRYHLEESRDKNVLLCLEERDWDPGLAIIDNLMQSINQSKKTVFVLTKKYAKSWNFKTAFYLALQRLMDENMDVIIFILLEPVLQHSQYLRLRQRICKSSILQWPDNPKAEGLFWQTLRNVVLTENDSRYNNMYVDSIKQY

[2] = molecular target: T2, Toll-like receptor 7 (Homo sapiens, UniProt Q9NYK1); assay: Agonist activity at recombinant human TLR7 transfected in HEK293 cells assessed as induction of SEAP production incubated overnight by SEAP reporter gene based assay; type: cell-based
T2 sequence (Q9NYK1 whole entry): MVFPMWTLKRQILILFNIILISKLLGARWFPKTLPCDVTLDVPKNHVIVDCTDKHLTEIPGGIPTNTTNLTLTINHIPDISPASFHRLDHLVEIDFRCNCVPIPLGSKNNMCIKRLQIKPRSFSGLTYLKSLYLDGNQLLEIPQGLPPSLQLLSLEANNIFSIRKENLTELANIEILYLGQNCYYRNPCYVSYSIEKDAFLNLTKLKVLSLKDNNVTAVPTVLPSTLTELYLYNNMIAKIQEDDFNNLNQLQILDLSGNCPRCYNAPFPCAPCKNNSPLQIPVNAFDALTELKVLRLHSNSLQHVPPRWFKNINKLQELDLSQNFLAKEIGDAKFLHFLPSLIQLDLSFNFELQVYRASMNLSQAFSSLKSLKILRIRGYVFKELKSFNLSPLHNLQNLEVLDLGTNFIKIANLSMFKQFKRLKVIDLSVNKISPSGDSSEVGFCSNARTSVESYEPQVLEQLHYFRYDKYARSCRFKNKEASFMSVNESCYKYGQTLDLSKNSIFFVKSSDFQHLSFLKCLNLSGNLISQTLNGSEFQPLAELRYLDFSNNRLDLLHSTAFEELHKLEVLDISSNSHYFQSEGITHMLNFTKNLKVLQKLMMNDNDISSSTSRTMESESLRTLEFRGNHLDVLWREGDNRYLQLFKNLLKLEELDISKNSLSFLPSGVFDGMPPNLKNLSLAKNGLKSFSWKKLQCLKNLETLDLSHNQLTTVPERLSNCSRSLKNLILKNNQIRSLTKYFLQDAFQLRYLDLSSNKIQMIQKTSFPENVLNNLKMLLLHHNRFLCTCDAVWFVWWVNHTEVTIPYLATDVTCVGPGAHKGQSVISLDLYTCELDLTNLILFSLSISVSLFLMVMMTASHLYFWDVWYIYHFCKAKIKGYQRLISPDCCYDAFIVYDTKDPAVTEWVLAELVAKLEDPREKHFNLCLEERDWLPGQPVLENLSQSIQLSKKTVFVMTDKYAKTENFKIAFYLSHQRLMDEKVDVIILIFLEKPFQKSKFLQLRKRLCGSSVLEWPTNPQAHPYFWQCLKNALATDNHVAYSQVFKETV

[3] = molecular target: T2, Toll-like receptor 7; assay: Agonist activity at human TLR7 in HEK-Blue hTLR7 cells assessed as activation of NFkappaB by SEAP reporter gene based spectrophotometry assay; type: cell-based; conditions: hek-blue htlr7
[4] = molecular target: T2, Toll-like receptor 7; assay: Agonist activity at human TLR7 transfected in HEK293 cells assessed as induction of SEAP production incubated overnight by SEAP reporter gene based assay; type: cell-based
[5] = molecular target: T1, Toll-like receptor 8; assay: Agonist activity at human TLR8 in HEK-Blue hTLR8 cells assessed as activation of NFkappaB by SEAP reporter gene based spectrophotometry assay; type: cell-based; conditions: hek-blue htlr8
[6] = molecular target: T2, Toll-like receptor 7; assay: Agonist activity at human TLR7 by reporter cell based assay
[7] = molecular target: T2, Toll-like receptor 7; assay: Agonist activity at TLR7 (unknown origin)
[8] = molecular target: T1, Toll-like receptor 8; assay: Agonist activity at TLR8 (unknown origin)

SMILES: CCCCc1nc2c(NC=O)nc3ccccc3c2s1
EC50 [3]: 2540 nM

SMILES: CCC[C@@H](CCO)Nc1nc(N)nc(C)c1Cc1ccc(CNCCO)cc1OC
EC50 [1]: > 10000 nM
EC50 [2]: 9.77 nM

SMILES: CCCc1nc2c(NS(C)(=O)=O)nc3ccccc3c2s1
EC50 [5]: 10600 nM

SMILES: CCCCNc1nc(N)nnc1OCCCc1ccccc1
EC50 [7]: 2940 nM

SMILES: CCC[C@@H](CCO)Nc1nc(N)nc(C)c1Cc1ccc(CN2CCNCC2)cc1OC
EC50 [2]: 5.89 nM

SMILES: CCCCc1nc2c(N)nc3ccccc3c2n1CCCN(Cc1cccc(C(=O)OC)c1)C(=O)CN1CCCN(C(C)=O)CC1
EC50 [6]: 501 nM

SMILES: CCC[C@@H](CCO)Nc1nc(N)nc(C)c1Cc1ccc(CN(C)CC(N)=O)cc1OC
EC50 [1]: > 10000 nM
EC50 [2]: 55 nM

SMILES: CCc1nc2c(N)nc3ccccc3c2s1
EC50 [3]: 5120 nM
EC50 [5]: 810 nM

SMILES: CCC[C@@H](CCO)Nc1nc(N)nc(C)c1Cc1ccc(Cn2ccnc2)cc1OC
EC50 [2]: 2.75 nM

SMILES: CCCCNc1nc(N)nnc1OCc1cccnc1
EC50 [7]: 1710 nM

SMILES: CCC[C@@H](CO)Nc1nc(N)nc(C)c1Cc1ccc(CNC2CN(C)C2)cc1OC
EC50 [1]: 6170 nM
EC50 [2]: 155 nM

SMILES: CCC[C@@H](CCO)Nc1nc(N)nc(C)c1Cc1ccc(CNC2CN(C)C2)cc1OC
EC50 [1]: > 10000 nM
EC50 [2]: 19.1 nM

SMILES: CCCCc1nc2c(N)nc3ccccc3c2n1CCCN(Cc1cccc(C(=O)OC)c1)C(=O)CN1C[C@@H](C)O[C@@H](C)C1
EC50 [6]: 1000 nM

SMILES: COCCc1nc2c(N)nc3ccccc3c2n1CCCCN(CCN(C)C)Cc1cccc(OCC(=O)OC(C)(C)C)c1
EC50 [4]: 56.4 nM

SMILES: CCCCc1nc2c(N)nc3ccccc3c2n1CCCN(Cc1cccc(C(=O)OC)c1)C(=O)CN(CCC)CCC
EC50 [6]: 79.4 nM

SMILES: CCC[C@@H](CCO)Nc1nc(N)nc(C)c1Cc1ccc(CNC)cc1OC
EC50 [1]: 6460 nM
EC50 [2]: 3.02 nM

SMILES: CCCCOc1nc(N)c2[nH]cc(Cc3ccc(CN4CCCC4)cc3)c2n1
EC50 [7]: 100 nM

Other lines, results leading:

EC50 [1]: > 10000 nM
EC50 [2]: 81.3 nM
SMILES: CCC[C@@H](CCO)Nc1nc(N)nc(C)c1Cc1ccc(CNCCC(N)=O)cc1OC

EC50 [2]: < 1.95 nM
SMILES: CCC[C@@H](CCO)Nc1nc(N)nc(C)c1Cc1ccc(CN2CCN(C)CC2)cc1OC

EC50 [4]: 114 nM
SMILES: COCCc1nc2c(N)nc3ccccc3c2n1CCCCN(CCCN1CCOCC1)Cc1cccc(OCC(=O)OC(C)(C)C)c1

EC50 [2]: < 1.95 nM
SMILES: CCC[C@@H](CCO)Nc1nc(N)nc(C)c1Cc1ccc(CN(C)CCOC)cc1OC

EC50 [6]: 158 nM
SMILES: CCCCc1nc2c(N)nc3ccccc3c2n1CCCN(Cc1cccc(C(=O)OC)c1)C(=O)CN(C)CCOC

EC50 [5]: 2230 nM
SMILES: CCCc1nc2c(NC(=O)CCN=[N+]=[N-])nc3ccccc3c2s1

EC50 [6]: 1580 nM
SMILES: CCCCc1nc2c(N)nc3ccccc3c2n1CCCN(Cc1cccc(C(=O)OC)c1)C(=O)CN1CC(O)C1

EC50 [4]: 150 nM
SMILES: CCOC(=O)COc1ccc(CN(CCCn2c(CCOC)nc3c(N)nc4ccccc4c32)C(=O)CN2CCCC2)cc1

EC50 [6]: 200 nM
SMILES: CCCCc1nc2c(N)nc3ccccc3c2n1CCCN(Cc1cccc(C(=O)OC)c1)C(=O)CN1CCC(OC)CC1

EC50 [6]: 631 nM
SMILES: CCCCc1nc2c(N)nc3ccccc3c2n1CCCN(Cc1cccc(C(=O)OC)c1)C(=O)CN1CCC(C(=O)N(C)C)CC1

EC50 [3]: 9670 nM
EC50 [5]: 10800 nM
SMILES: CC(C)c1nc2c(N)nc3ccccc3c2s1

EC50 [4]: 172 nM
SMILES: CCOC(=O)COc1ccc(CN(CCCn2c(CCOC)nc3c(N)nc4ccccc4c32)C(=O)CN(C)C)cc1

EC50 [1]: 5250 nM
EC50 [2]: 63.1 nM
SMILES: CCC[C@@H](CO)Nc1nc(N)nc(C)c1Cc1ccc(CN2CCNCC2)cc1OC

EC50 [6]: 501 nM
SMILES: CCCCc1nc2c(N)nc3ccccc3c2n1CCCN(Cc1cccc(C(=O)OC)c1)C(=O)CN1CCC(O)CC1

EC50 [8]: 640 nM
SMILES: CCCCNc1nc(N)nnc1OCc1ccccc1OC

EC50 [7]: 4750 nM
EC50 [8]: 1000 nM
SMILES: CCCCNc1nc(N)nnc1OCCOC
